From US10766914B2, “DNA alkylating agents” (OBI PHARMA, INC., priority 2015, dated 2020) come the findings set out here.

Molecules are shown by their SMILES.

Data set [1] relates to renal cell carcinoma 786-O xenograft. The data set is described as follows: Example 4-E antitumor efficacy, renal cell carcinoma 786-O xenograft model. It counts as in vivo, female nude mice (nu/nu). Particulars: 40 mpk, qd × 5/wk × 2. An excerpt:
(§1) Specific pathogen-free homozygous female nude mice (nu/nu, Charles River Laboratories) were used. Mice were given food and water ad libitum and housed in microisolator cages. Four to six week old animals were identified by microchips (Locus Technology, Manchester, Md., USA) at the time of the experiments. All animal studies were approved by the Institutional Animal Care and Use Committee at Threshold Pharmaceuticals, Inc.
(§2) All cell lines were from the American Type Culture Collection (ATCC, Rockville, Md., USA).
Cells were mixed with Matrigel (50% with exception for 30% in the H460) and 0.2 ml per mouse were subcutaneously implanted to the flank area of the animals. When tumor size reached 100-150 250 mm3, mice were randomized into experimental or vehicle groups with 10 mice/group and treatment was started (Day 1). The tested compounds were formulated in 5% DMSO in D5W. […] Tumor growth and body weight were measured twice a week. Tumor volume was calculated as (length×width2)/2. Drug efficacy was assessed as Tumor Growth Inhibition (TGI) and Tumor Growth Delay (TGD). […] TGD was calculated as the extra days for the treated tumor to reach 500 mm3 or 1000 mm3 as compared to the control group. […] Data are expressed as the mean±SEM. […]

Data set [2] is described as follows: Example 4-E body weight change, 786-O xenograft study. The data set is classed as in vivo, female nude mice (nu/nu). To be noted: 40 mpk, qd × 5/wk × 2. Here is the method: Cells were mixed with Matrigel (50% with exception for 30% in the H460) and 0.2 ml per mouse were subcutaneously implanted to the flank area of the animals. When tumor size reached 100-150 250 mm3, mice were randomized into experimental or vehicle groups with 10 mice/group and treatment was started (Day 1). The tested compounds were formulated in 5% DMSO in D5W. […] Tumor growth and body weight were measured twice a week. Tumor volume was calculated as (length×width2)/2. Drug efficacy was assessed as Tumor Growth Inhibition (TGI) and Tumor Growth Delay (TGD). TGI was defined as (1−ΔT/ΔC)×100, where ΔT/ΔC presented the ratio of the change in mean (or median, if variation within the group was relatively large) tumor volume of the treated group and of the control group. TGD was calculated as the extra days for the treated tumor to reach 500 mm3 or 1000 mm3 as compared to the control group. Animals were culled when individual tumor size reached over 2000 mm3 or mean tumor volume exceeded 1000 mm3 in the group. Data are expressed as the mean±SEM. One-way analysis of variance with Dunnett post comparison test (GraphPad Prism 4) or two-tailed student's t-test were used for analysis. A P level <0.05 was considered statistically significant.
The compound TH-2768 was tested in a renal cell carcinoma 786-O model. The compound was dosed as follows. […]

The next data set deals with H460 cells. The data set is described as follows: Proliferation assay in H460 cells (2 hr exposure, AlamarBlue). It counts as cell-based, human. Particulars: Homo sapiens, NCI-H460, 2 hrs exposure, wash, 70 hrs growth, read-out: IC 50 in proliferation assay in H460 cells. Put shortly: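 H460 cells seeded at 4×10^3/well, grown 24 h, then exposed to compound for 2 h at 37 °C. Drug was washed off and cells were regrown 70 h in fresh medium. Viable cells were read by AlamarBlue, and IC50 was taken as the concentration giving 50% growth inhibition.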
On the technique in general: Alamar Blue is a resazurin reagent that responds to reducing activity.

Data set [3] has as its system H460 NSCLC xenograft. The data set is described as follows: Example 4-G antitumor efficacy, ectopic H460 NSCLC xenograft model. The data set is classed as in vivo, female nude mice (nu/nu). To be noted: ip, Q7D × 3.
Text: as §1, §2
(§3) Cells were mixed with Matrigel (50% with exception for 30% in the H460) and 0.2 ml per mouse were subcutaneously implanted to the flank area of the animals. When tumor size reached 100-150 250 mm3, mice were randomized into experimental or vehicle groups with 10 mice/group and treatment was started (Day 1). The tested compounds were formulated in 5% DMSO in D5W. The regimens employed in the examples include IP, QD×5/wk (5 days on, 2 days off) as one cycle, for a total of 2 cycles; IP, once; IP, weekly for total 3 weeks; and IV, weekly for 3 weeks. Tumor growth and body weight were measured twice a week. Tumor volume was calculated as (length×width2)/2. Drug efficacy was assessed as Tumor Growth Inhibition (TGI) and Tumor Growth Delay (TGD). TGI was defined as (1−ΔT/ΔC)×100, where ΔT/ΔC presented the ratio of the change in mean (or median, if variation within the group was relatively large) tumor volume of the treated group and of the control group. TGD was calculated as the extra days for the treated tumor to reach 500 mm3 or 1000 mm3 as compared to the control group. Animals were culled when individual tumor size reached over 2000 mm3 or mean tumor volume exceeded 1000 mm3 in the group. Data are expressed as the mean±SEM. One-way analysis of variance with Dunnett post comparison test (GraphPad Prism 4) or two-tailed student's t-test were used for analysis. A P level <0.05 was considered statistically significant.
(§4) The compounds TH-3040 and TH-3045 were tested in a H460 model. The compounds were dosed as follows. A dose-dependent TH-3040 or TH-3045 was given IP weekly for 3 weeks, from 5 to 45 mg/kg starting at 100 mm^3 tumors on day 1 (10 animals per group average tumor volume). The antitumor effects and the safety of administration are graphically illustrated below.

Data set [4] in a line: Example 4-G body weight change, H460 xenograft study. The data set is classed as in vivo, female nude mice (nu/nu). To be noted: ip, Q7D × 3. How it is done:
as §3, §4

Data set [5] has as its system H460 non-small cell lung cancer xenograft tumor. The data set is described as follows: Example 4-A antitumor efficacy, ectopic H460 NSCLC xenograft model. It counts as in vivo, female nude mice (nu/nu). To be noted: for TGD 500 / TGD 1000 / TGI: H460.
Text: as §1, §2, §3
Compounds provided herein were tested in vivo human tumor xenograft models and compared to standard chemotherapeutic agents such as gemcitabine, nab-paclitaxel. […] The compound was dosed as follows: daily IP dosing: 5 doses then 2 days off then 5 more doses starting at 100 mm^3 tumors on day 1 (10 animals per group median tumor volume). It is contemplated that in some embodiments, the compounds provided herein are activated by human and not by mouse enzymes. The antitumor effects and the safety of administration are graphically illustrated in FIGS. 3-20 below.

Data set [6] is described as follows: Example 4-A body weight change, H460 xenograft study. It counts as in vivo, female nude mice (nu/nu). Here is the method:
as §3, with “A P level <0.05 was considered statistically significant.” left out

The subject of data set [7] is A 549 non-small cell lung xenograft. The data set is described as follows: Example 4-B antitumor efficacy, ectopic A549 NSCLC xenograft model. The data set is classed as in vivo, female nude mice (nu/nu).
Text: as §1, §2, §3
The dosing was as follows. Daily IP dosing: 5 doses then 2 days off then 5 more doses starting at 110 mm^3 tumors on day 1 (10 animals per group average tumor volume).
Doses were selected by first doing a toxicity test in CD1 mice as described above. The compounds were tested against Thio-tepa.

The nature of data set [8]: Example 4-B body weight change, A549 xenograft study. It counts as in vivo, female nude mice (nu/nu). How it is done: as §3
Antitumor effects of compounds provided herein were determined on A 549 non-small cell lung xenograft model in comparison with a chemotherapy agent, thiotepa. The dosing was as follows. Daily IP dosing: 5 doses then 2 days off then 5 more doses starting at 110 mm^3 tumors on day 1 (10 animals per group average tumor volume). The antitumor effects and the safety of administration are graphically illustrated below.

For data set [9], the system named is A375 melanoma human tumor xenograft. The data set is described as follows: Example 4-C antitumor efficacy, ectopic A375 melanoma xenograft model. The data set is classed as in vivo, female nude mice (nu/nu). To be noted: qd × 5 × 2, ip.
Text: as §1, §2, §3
his study employed an A375 melanoma human tumor xenograft model and various compounds provided herein were compared to thiotepa and the approved anti melanoma drug, nab-Paclitaxel.

Data set [10] is described as follows: Example 4-C body weight change, A375 xenograft study. It counts as in vivo, female nude mice (nu/nu). Particulars: 40 mpk, qd × 5 × 2, ip. How it is done: as §3
his study employed an A375 melanoma human tumor xenograft model and various compounds provided herein were compared to thiotepa and the approved anti melanoma drug, nab-Paclitaxel. The antitumor effects and the safety of administration are graphically illustrated below.

For data set [11], the system named is H460 NSCLC xenograft. The data set is described as follows: Example 4-I antitumor efficacy, ectopic H460 NSCLC xenograft model. Particulars: 10 mg/kg, iv, Q7D × 3. It counts as in vivo, female nude mice (nu/nu).
Text: as §1, §2, §3
(§5) The compound TH-2870 was tested in a H460 model. The compound was dosed follows. 1.5, 5 or 15 mg/kg, IV, weekly for 3 weeks at 250 mm^3 tumors on day 1 (10 animals per group average tumor volume), comparing with docetaxel. The antitumor effects and the safety of administration are graphically illustrated below.

Data set [12] can be described thus: Example 4-I body weight change, H460 xenograft study. It counts as in vivo, female nude mice (nu/nu). To be noted: 10 mg/kg, iv, Q7D × 3. How it is done: as §3, §5

For the compound `CCN(CC)CCNC(=O)c1c(C)[nH]c(/C=C2\C(=O)Nc3ccc(F)cc32)c1C` [Sunitinib, sunitinib, reference compound], the TGI in [1] (po) is 67.8%. For the same compound, the “Max. BW loss %” value in data set [2] (po) worked out at 0.3%.
Take `C[C@@H](OP(=O)(N1CC1)N1CC1)c1ccc([N+](=O)[O-])c(Oc2ccc(-c3ccccc3)cc2)c1` [Compound 3045]: the IC50 in the data set with H460 cells worked out at 4 nM. The TGD 500 was 48 days in the data set on H460 NSCLC xenograft [3] (5 mpk), 70 days in the data set with H460 NSCLC xenograft [3] (15 mpk) and 86 days with H460 NSCLC xenograft [3] (45 mpk). The TGI was 104.0% with H460 NSCLC xenograft [3] (5 mpk), 104.8% with H460 NSCLC xenograft [3] (15 mpk) and 106.3% with H460 NSCLC xenograft [3] (45 mpk). Besides, the figures for the “Max BW loss” value in [4] (5 mpk), in data set [4] (15 mpk) and in [4] (45 mpk) were 0.0%, 2.8% and 2.4%, respectively.
In the case of `CC(OP(=O)(N1CC1)N1CC1)c1ccc([N+](=O)[O-])c(Oc2ccccc2)c1` (centres unmarked) [Compound 2768], in the data set with H460 cells, the IC50 was 40 nM. Further, the “TGD 500” value in data set [5] (40 mg/kg ip QD × 5/wk × 2 wks) was 56 days; in data set [7] (40 mg/kg ip QD × 5/wk × 2 wks), above 72 days; in [7] (80 mg/kg ip QD × 5/wk × 2 wks), above 72 days; in data set [9] (40 mpk), 7 days. Besides, the “TGD 1000” value was 62 days in [5] (40 mg/kg ip QD × 5/wk × 2 wks) and 7 days in data set [9] (40 mpk). The TGI amounted to 104.1% in data set [5] (40 mg/kg ip QD × 5/wk × 2 wks), 100.6% in data set [7] (40 mg/kg ip QD × 5/wk × 2 wks), 104.4% in data set [7] (80 mg/kg ip QD × 5/wk × 2 wks) and 73.0% in [1] (ip). Also, the “antitumor effect as a monotherapy” value in data set [5] (H460 study, versus gemcitabine) is on record as “superior to the effect of gemcitabine”. Also, the “Max. BW loss %” value in data set [6] (40 mg/kg ip QD × 5/wk × 2 wks) was found to be 4.0%; in data set [8] (40 mg/kg ip QD × 5/wk × 2 wks), 0.0%; in [8] (80 mg/kg ip QD × 5/wk × 2 wks) it was 4.8%; in [10], 0%; in [2] (ip) it was 0.0%. In [9] (Mus musculus, A-375, 40 mpk, read-out: TGI), the inhibition in vivo at 40 mg/kg is 36.7%.
Regarding `Nc1ccn([C@@H]2O[C@H](CO)[C@@H](O)C2(F)F)c(=O)n1` [GEM, gemcitabine, reference compound], in data set [5] (60 mg/kg ip Q3D × 5), the “TGD 500” value came out at 7 days, the “TGD 1000” value came out at 7 days and the TGI is 42.7%. Also, the “Max. BW loss %” value in [6] (60 mg/kg ip Q3D × 5) came out at 4.9%.
Take `CC(=O)O[C@@]12CO[C@@H]1C[C@H](O)[C@@]1(C)C(=O)[C@H](O)C3=C(C)[C@@H](OC(=O)[C@H](O)[C@@H](NC(=O)OC(C)(C)C)c4ccccc4)C[C@@](O)([C@@H](OC(=O)c4ccccc4)[C@H]21)C3(C)C` [Doectaxel, docetaxel, reference compound]: in the data set with H460 NSCLC xenograft [11] (H460), the “TGD500, Days (vs. vehicle)” value was found to be 6 days and the “TGD1000, Days (vs. vehicle)” value was 9 days. In addition, in the data set on H460 NSCLC xenograft [11] (H460, 250 mm3 tumors on day 1), the TGI is given as 51.3%. Further, the “Max. BW loss %” value in data set [12] worked out at 12.4%.
